We go through one compound from patent US20130032547A1, “STABILIZATION AND DISINFECTION OF WASTES USING HIGH ENERGY E-BEAM AND CHEMICAL OXIDANTS” (priority 2011, published 2013).

This assay relates to estrogenic activity of 17-β-estradiol (E2); human estrogen receptor. Briefly: Estrogenic activity, YES assay (recombinant yeast). Type of assay: cell-based, Saccharomyces cereviciae. The note with it: E2 standards in DMSO.

Take `C[C@]12CC[C@@H]3c4ccc(O)cc4CC[C@H]3[C@@H]1CC[C@@H]2O` [E2, 17-β-estradiol, reference compound]: the “upper limit of the dynamic range of the YES assay (saturation)” value is on record as 60 nM.
